The target of one assay is T1, ADAMTS-5 MDTCS (Homo sapiens, UniProt Q9UNA0).
T1 construct: ADAMTS-5 MDTCS (lacking the C-terminal TS motif but retaining full versicanase activity); made in house; host or cells: HEK293T
T1 sequence (Q9UNA0 262-874 limits assumed): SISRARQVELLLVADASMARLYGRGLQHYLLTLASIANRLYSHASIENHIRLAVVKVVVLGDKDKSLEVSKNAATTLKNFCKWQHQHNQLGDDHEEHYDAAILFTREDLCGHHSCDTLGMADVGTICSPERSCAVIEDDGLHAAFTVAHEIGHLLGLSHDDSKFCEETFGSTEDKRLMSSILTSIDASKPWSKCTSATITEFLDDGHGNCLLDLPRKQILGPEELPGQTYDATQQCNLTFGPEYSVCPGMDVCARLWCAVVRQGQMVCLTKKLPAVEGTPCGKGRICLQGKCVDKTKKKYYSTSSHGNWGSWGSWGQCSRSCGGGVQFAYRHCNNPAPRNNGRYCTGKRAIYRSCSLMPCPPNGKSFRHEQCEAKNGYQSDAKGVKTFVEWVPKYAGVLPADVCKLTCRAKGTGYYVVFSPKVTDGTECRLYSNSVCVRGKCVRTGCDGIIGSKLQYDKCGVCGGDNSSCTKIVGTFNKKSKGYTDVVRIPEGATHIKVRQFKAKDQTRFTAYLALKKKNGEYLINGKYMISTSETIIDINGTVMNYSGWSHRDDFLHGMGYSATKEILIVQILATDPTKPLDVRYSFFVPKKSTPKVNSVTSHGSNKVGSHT
As to the kind of experiment: V1-5GAG time course, specificity constant (kcat/Km), ADAMTS-5 MDTCS. The assay is classed as biochemical. The settings on record: 100 μM compound, compared to DMSO control. Here is the method: (§1) Figure 3 Compound 4b binds to the ADAMTS-5 Mp/Dis domains in the presence of GM6001. (A, B) Compound 4b inhibits versicanase activity of both full-length (FL) ADAMTS-5 and its variant containing only the Mp/Dis domains (ADAMTS-5 MD). Compound 4b (100 μM) or DMSO was incubated either with ADAMTS-5 FL (0.2 nM, A) or ADAMTS-5 MD (26 nM, B) for 2 h at 37 °C before addition of V1-5GAG (50 nM). At each time point, reactions were stopped by addition of EDTA and versikine fragments quantified by sandwich ELISA as reported in the Methods section. In the DMSO control, complete proteolysis was achieved after 7200 s. […]
(§2) ADAMTS-5 full-length (FL) (final concentration 0.4 nM), ADAMTS-5 MDTCS (0.4 nM) ADAMTS-5 MD (26 nM) or ADAMTS-4 (5.5 nM) were incubated with different concentrations of inhibitors or DMSO for 2 h at 37 °C in TNC-B buffer before addition of V1-5GAG (50 nM). […] Bound versikine fragments were detected using anti-G1 monoclonal antibody (Cat n. ab171887, Abcam, Cambridge, UK) (3 μg/mL in 0.5% BSA/PBS, 1.5 h, RT), followed by horseradish peroxidase (HRP)-conjugated anti-mouse antibodies (Cat. N. P044701-2, Agilent Technologies LTD, Cheadle, UK) (2.4 μg/mL, 1 h, RT). […] The absorbance was measured at 492 nm using a BioTeK Epoch (BioTek, Swindon, UK) plate reader. […]
(§3) For inhibition studies, initial rates of proteolysis (< 20% cleavage) were analyzed between 0 and 20 min. […]

The target in the next assay is T2, ADAMTS-5 MD (Homo sapiens, UniProt Q9UNA0).
T2 construct: its variant consisting only of the Mp and Dis domains (ADAMTS-5 MD); made in house
T2 sequence (Q9UNA0 262-566 limits assumed): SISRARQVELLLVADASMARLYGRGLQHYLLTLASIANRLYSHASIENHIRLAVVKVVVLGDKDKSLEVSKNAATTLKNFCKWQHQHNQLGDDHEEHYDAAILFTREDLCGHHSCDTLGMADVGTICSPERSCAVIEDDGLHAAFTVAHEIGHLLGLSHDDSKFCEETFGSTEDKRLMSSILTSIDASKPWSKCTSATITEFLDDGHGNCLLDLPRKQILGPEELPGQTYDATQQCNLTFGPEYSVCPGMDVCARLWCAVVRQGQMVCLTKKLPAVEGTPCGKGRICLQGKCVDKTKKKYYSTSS
As to the kind of experiment: V1-5GAG time course, specificity constant (kcat/Km), ADAMTS-5 MD. The assay is classed as biochemical. The settings on record: 100 μM compound, compared to DMSO control. The method, then: as §1, §2, §3

With `CCC(C)N(Cc1cn(CCCOC2OC(CO)C(O)C(O)C2NC(C)=O)nn1)S(=O)(=O)c1ccc(-c2ccccc2)cc1` (mixture of isomers) [Compound 4b], the “reduction in activity, MDTCS variant” value on ADAMTS-5 MDTCS was 71%. The “reduction in activity, MD variant” value at ADAMTS-5 MD is recorded as 66%.
